The values below come from patent publication US20240360151A1 (SANOFI, priority 2023, published 2024).

The subject of assay [1] is NF-kB pathway (TNF-α secretion by THP-1 cells). As to the kind of experiment: TNF-α secretion assay in LPS-stimulated THP-1 cells, Lumit immunoassay. Type of assay: cell-based, human. The conditions noted are these: Homo sapiens, THP-1, 3 h, monocytic THP-1 cells, LPS 10 ng/mL, relative IC50, 10 concentrations, geometric mean. The method in brief: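 THP-1 monocytes in RPMI with 5% FBS were treated with compound, then stimulated with 10 ng/mL LPS for 3 h. Secreted TNF-α was measured in-plate by Lumit immunoassay. Relative IC50 came from 10-concentration curves fitted with a 4-parameter logistic model, reported as geometric mean.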

The target of a further assay is T1, NLRP3 inflammasome (Homo sapiens, UniProt Q96P20).
T1 construct: endogenous in cells; host or cells: THP-1 monocytic cells
T1 sequence (Q96P20 whole entry): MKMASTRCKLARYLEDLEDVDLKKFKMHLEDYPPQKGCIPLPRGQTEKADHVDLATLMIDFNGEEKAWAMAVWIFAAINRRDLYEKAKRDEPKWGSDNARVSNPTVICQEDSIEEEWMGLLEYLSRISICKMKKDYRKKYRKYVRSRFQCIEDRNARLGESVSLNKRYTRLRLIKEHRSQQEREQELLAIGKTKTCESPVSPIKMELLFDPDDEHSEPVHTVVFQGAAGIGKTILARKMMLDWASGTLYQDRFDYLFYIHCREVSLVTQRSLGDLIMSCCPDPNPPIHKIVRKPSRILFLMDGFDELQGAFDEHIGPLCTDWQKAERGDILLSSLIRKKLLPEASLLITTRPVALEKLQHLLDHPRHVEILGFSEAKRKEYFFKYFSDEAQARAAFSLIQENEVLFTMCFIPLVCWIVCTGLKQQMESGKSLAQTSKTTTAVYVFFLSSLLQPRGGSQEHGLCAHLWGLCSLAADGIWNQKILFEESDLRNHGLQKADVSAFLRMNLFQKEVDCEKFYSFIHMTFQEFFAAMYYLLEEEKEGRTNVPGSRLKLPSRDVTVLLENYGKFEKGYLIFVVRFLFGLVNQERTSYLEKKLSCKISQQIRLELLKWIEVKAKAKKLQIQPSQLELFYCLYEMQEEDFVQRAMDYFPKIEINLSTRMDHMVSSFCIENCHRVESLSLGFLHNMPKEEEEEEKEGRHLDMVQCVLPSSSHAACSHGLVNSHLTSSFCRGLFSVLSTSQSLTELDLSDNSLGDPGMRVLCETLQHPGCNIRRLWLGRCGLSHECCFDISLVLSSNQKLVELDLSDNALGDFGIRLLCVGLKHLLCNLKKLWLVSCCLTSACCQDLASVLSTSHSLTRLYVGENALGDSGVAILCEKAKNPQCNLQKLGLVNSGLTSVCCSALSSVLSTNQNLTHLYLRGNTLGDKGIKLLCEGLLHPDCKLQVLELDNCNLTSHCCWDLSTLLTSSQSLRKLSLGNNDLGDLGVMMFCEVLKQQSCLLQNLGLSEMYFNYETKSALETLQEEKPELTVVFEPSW
Put plainly: IL-1β secretion assay (NLRP3 IC50) in LPS-primed, nigericin-activated THP-1 cells, HTRF. Type of assay: cell-based. As to conditions: monocytic THP-1 cells; LPS 10 ng/mL 3 h priming, then compound + nigericin 10 μM 2 h; relative IC50, 10 concentrations, geometric mean. The gist of the method: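 THP-1 cells primed with LPS 10 ng/mL for 3 h at 37° C., then compound (10-point 1:3 dilution, 0.1% DMSO) added with 10 μM nigericin for 2 h. Supernatant IL-1β measured by HTRF; relative IC50 from a 4-parameter logistic fit, reported as geometric mean.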
In general terms: In TR-FRET formats the signal depends on donor and acceptor labels being close together.

On to `CC(=O)N1CC[C@H]2OCCN(c3cc(C)c(-c4ccc(C(F)(F)F)cc4O)nn3)[C@H]2C1` [Example 363, 1-[(4aS,8aR)-4-[6-[2-hydroxy-4-(trifluoromethyl)phenyl]-5-methyl-pyridazin-3-yl]-3,4a,5,7,8,8a-hexahydro-2H-pyrido[4,3-b][1,4]oxazin-6-yl]ethanone], for which the figures for the IC50 (in assay [1]; on NLRP3 inflammasome) were over 10000 nM and 16 nM, respectively.
The like results for `Cc1cc(C)c(-c2ccc(N3C[C@H](CO)O[C@H](C)C3)nn2)c(O)c1` [Example 365, 2-[6-[(2R,6R)-2-(hydroxymethyl)-6-methyl-morpholin-4-yl]pyridazin-3-yl]-3,5-dimethyl-phenol] were, in that order, over 10000 nM and 28 nM.
With `Cc1cc(C(F)(F)F)cc(O)c1-c1nnc(N2C[C@@H](O)CC2=O)cc1C(F)F` [Example 372, (4S)-1-[5-(difluoromethyl)-6-[2-hydroxy-6-methyl-4-(trifluoromethyl)phenyl]pyridazin-3-yl]-4-hydroxy-pyrrolidin-2-one], the IC50 in assay [1] was over 10000 nM; on NLRP3 inflammasome it was 94 nM.
Turning to `Cc1ccc(-c2nnc(N3CCO[C@@H]4CCN(C)C[C@@H]43)cc2C)c(O)c1` [Example 373, 2-[6-[(4aS,8aR)-6-methyl-3,4a,5,7,8,8a-hexahydro-2H-pyrido[4,3-b][1,4]oxazin-4-yl]-4-methyl-pyridazin-3-yl]-5-methyl-phenol], the results for the IC50 (in assay [1]; at NLRP3 inflammasome) were over 10000 nM and 1.1 nM, respectively.
Regarding `Cc1cc(N2CCO[C@@H]3CCN(C)C[C@@H]32)nnc1-c1ccc(Cl)cc1O` [Example 379, 2-[6-[(4aS,8aR)-6-methyl-3,4a,5,7,8,8a-hexahydro-2H-pyrido[4,3-b][1,4]oxazin-4-yl]-4-methyl-pyridazin-3-yl]-5-chloro-phenol], the 50% inhibitory concentration (IC50) in assay [1] was over 10000 nM; at NLRP3 inflammasome, 1 nM.
The like results for `CCc1cc(C(F)(F)F)cc(O)c1-c1ccc(N2CCO[C@@H]3CCN(C(C)=O)C[C@@H]32)nn1` [Example 380, 1-[(4aS,8aR)-4-[6-[2-ethyl-6-hydroxy-4-(trifluoromethyl)phenyl]pyridazin-3-yl]-3,4a,5,7,8,8a-hexahydro-2H-pyrido[4,3-b][1,4]oxazin-6-yl]ethanone] were, in that order, over 10000 nM and 4 nM.
As to `CCc1cc(Cl)cc(O)c1-c1ccc(N2CCO[C@@H]3CCN(C(C)=O)C[C@@H]32)nn1` [Example 381, 1-[(4aS,8aR)-4-[6-(4-chloro-2-ethyl-6-hydroxy-phenyl)pyridazin-3-yl]-3,4a,5,7,8,8a-hexahydro-2H-pyrido[4,3-b][1,4]oxazin-6-yl]ethanone], the results for the IC50 (in assay [1]; at NLRP3 inflammasome) were over 10000 nM and 3 nM, respectively.
With `Oc1cc(C(F)(F)F)ccc1-c1nnc(N2CCO[C@@H]3CCNC[C@@H]32)cc1C(F)F` [Example 382, 2-[6-[(4aS,8aR)-2,3,4a,5,6,7,8,8a-octahydropyrido[4,3-b][1,4]oxazin-4-yl]-4-(difluoromethyl)pyridazin-3-yl]-5-(trifluoromethyl)phenol], the IC50 was over 10000 nM in assay [1] and 12 nM at NLRP3 inflammasome.
Turning to `CC(=O)N1CC[C@H]2OCCN(c3cc(C(F)F)c(-c4ccc(C(F)(F)F)cc4O)nn3)[C@H]2C1` [Example 386, 1-[(4aS,8aR)-4-[5-(difluoromethyl)-6-[2-hydroxy-4-(trifluoromethyl)phenyl]pyridazin-3-yl]-3,4a,5,7,8,8a-hexahydro-2H-pyrido[4,3-b][1,4]oxazin-6-yl]ethanone], the half-maximal inhibitory concentration (IC50) was over 10000 nM in assay [1] and 19 nM on NLRP3 inflammasome.
On to `CC(=O)N1CC[C@H]2OCCN(c3cc(C(F)F)c(-c4ccc(C)cc4O)nn3)[C@H]2C1` [Example 387, 1-[(4aS,8aR)-4-[5-(difluoromethyl)-6-(2-hydroxy-4-methyl-phenyl)pyridazin-3-yl]-3,4a,5,7,8,8a-hexahydro-2H-pyrido[4,3-b][1,4]oxazin-6-yl]ethanone], for which the IC50 in assay [1] was over 10000 nM; at NLRP3 inflammasome, 31 nM.
On to `Cc1cc(C)c(-c2ccc(N3C[C@@H](CO)O[C@@H](C)C3)nn2)c(O)c1` [Example 390, 2-[6-[(2S,6S)-2-(hydroxymethyl)-6-methyl-morpholin-4-yl]pyridazin-3-yl]-3,5-dimethyl-phenol], for which the IC50 in assay [1] was over 10000 nM; on NLRP3 inflammasome, 33 nM.
Consider `Cc1cc(C(F)(F)F)cc(O)c1-c1ccc(N2CC[C@H]3CCN(C)C[C@H]32)nn1` [Example 391, 2-[6-[(3aR,7aS)-6-methyl-3,3a,4,5,7,7a-hexahydro-2H-pyrrolo[2,3-c]pyridin-1-yl]pyridazin-3-yl]-3-methyl-5-(trifluoromethyl)phenol], for which the results for the IC50 (in assay [1]; at NLRP3 inflammasome) were over 10000 nM and 31 nM, respectively.
Regarding `Cc1cc(C(F)(F)F)cc(O)c1-c1ccc(N2CC[C@@H]3CCN(C)C[C@@H]32)nn1` [Example 392, 2-[6-[(3aS,7aR)-6-methyl-3,3a,4,5,7,7a-hexahydro-2H-pyrrolo[2,3-c]pyridin-1-yl]pyridazin-3-yl]-3-methyl-5-(trifluoromethyl)phenol], the IC50 in assay [1] is over 10000 nM; on NLRP3 inflammasome it was 1 nM.
For the molecule `[O-][S+]1CCN(c2ccc(-c3c(O)cc(Cl)cc3Cl)nn2)CC1` [Example 400, 3,5-dichloro-2-[6-(1-oxo-1,4-thiazinan-4-yl)pyridazin-3-yl]phenol], the results for the IC50 (in assay [1]; on NLRP3 inflammasome) were over 10000 nM and 93 nM, respectively.
The like results for `CC(=O)N1CC[C@H]2OCCN(c3nnc(-c4c(C)cc(C)cc4O)cc3C(F)F)[C@H]2C1` [Example 405, 1-[(4aS,8aR)-4-[4-(difluoromethyl)-6-(2-hydroxy-4,6-dimethyl-phenyl)pyridazin-3-yl]-3,4a,5,7,8,8a-hexahydro-2H-pyrido[4,3-b][1,4]oxazin-6-yl]ethanone] were, in that order, over 10000 nM and 89 nM.
The corresponding values for `CCc1cccc(O)c1-c1ccc(N2CCO[C@@H]3CCN(CC)C[C@@H]32)nn1` [Example 408, 2-[6-[(4aS,8aR)-6-ethyl-3,4a,5,7,8,8a-hexahydro-2H-pyrido[4,3-b][1,4]oxazin-4-yl]pyridazin-3-yl]-3-ethyl-phenol] are over 10000 nM and 2 nM.
Regarding `CCN1CC[C@H]2OCCN(c3ccc(-c4c(C)cccc4O)nn3)[C@H]2C1` [Example 412, 2-[6-[(4aS,8aR)-6-ethyl-3,4a,5,7,8,8a-hexahydro-2H-pyrido[4,3-b][1,4]oxazin-4-yl]pyridazin-3-yl]-3-methyl-phenol], the results for the concentration for half-maximal inhibition (IC50) (in assay [1]; on NLRP3 inflammasome) were over 10000 nM and 18 nM, respectively.
The corresponding values for `CCc1cc(C(F)(F)F)cc(O)c1-c1ccc(N2CCO[C@H](CO)C2)nn1` [Example 418, 3-ethyl-2-[6-[(2S)-2-(hydroxymethyl)morpholin-4-yl]pyridazin-3-yl]-5-(trifluoromethyl)phenol] are over 10000 nM and 13 nM.
The like results for `CCc1cccc(O)c1-c1cc(C(F)F)c(N2CCO[C@@H]3CCN(C)C[C@@H]32)nn1` [Example 425, 2-[6-[(4aS,8aR)-6-methyl-3,4a,5,7,8,8a-hexahydro-2H-pyrido[4,3-b][1,4]oxazin-4-yl]-5-(difluoromethyl)pyridazin-3-yl]-3-ethyl-phenol] were, in that order, over 10000 nM and 55 nM.
`Cc1cc(N2CCO[C@@H]3CCN(C)C[C@@H]32)nnc1-c1ccc(C(F)(F)F)cc1O` [Example 430, 2-[6-[(4aS,8aR)-6-methyl-3,4a,5,7,8,8a-hexahydro-2H-pyrido[4,3-b][1,4]oxazin-4-yl]-4-methyl-pyridazin-3-yl]-5-(trifluoromethyl)phenol]: the 50% inhibitory concentration (IC50) was over 10000 nM in assay [1] and under 0.3 nM at NLRP3 inflammasome.
Take `CC(=O)N1CC[C@H]2OCCN(c3cc(C)c(-c4ccc(C)cc4O)nn3)[C@H]2C1` [Example 431, 1-[(4aS,8aR)-4-[6-(2-hydroxy-4-methyl-phenyl)-5-methyl-pyridazin-3-yl]-3,4a,5,7,8,8a-hexahydro-2H-pyrido[4,3-b][1,4]oxazin-6-yl]ethanone]: the 50% inhibitory concentration (IC50) in assay [1] was over 10000 nM; at NLRP3 inflammasome, 62 nM.
The like results for `CCc1cccc(O)c1-c1ccc(N2CCO[C@@H]3CCN(C(C)C)C[C@@H]32)nn1` [Example 432, 2-[6-[(4aS,8aR)-6-isopropyl-3,4a,5,7,8,8a-hexahydro-2H-pyrido[4,3-b][1,4]oxazin-4-yl]pyridazin-3-yl]-3-ethyl-phenol] were, in that order, over 10000 nM and 5 nM.
The like results for `Cc1cc(C)c(-c2ccc(N3CCO[C@@H]4CCN(C(C)C)C[C@@H]43)nn2)c(O)c1` [Example 433, 2-[6-[(4aS,8aR)-6-isopropyl-3,4a,5,7,8,8a-hexahydro-2H-pyrido[4,3-b][1,4]oxazin-4-yl]pyridazin-3-yl]-3,5-dimethyl-phenol] were, in that order, over 10000 nM and 2 nM.
For the molecule `Cc1cc(C)c(-c2cc(C)c(N3CCO[C@@H]4CCN(C)C[C@@H]43)nn2)c(O)c1` [Example 434, 2-[6-[(4aS,8aR)-6-methyl-3,4a,5,7,8,8a-hexahydro-2H-pyrido[4,3-b][1,4]oxazin-4-yl]-5-methyl-pyridazin-3-yl]-3,5-dimethyl-phenol], the results for the IC50 (in assay [1]; on NLRP3 inflammasome) were over 10000 nM and 42 nM, respectively.
With `CCN1CC[C@H]2OCCN(c3cc(C)c(-c4ccc(C)cc4O)nn3)[C@H]2C1` [Example 435, 2-[6-[(4aS,8aR)-6-ethyl-3,4a,5,7,8,8a-hexahydro-2H-pyrido[4,3-b][1,4]oxazin-4-yl]-4-methyl-pyridazin-3-yl]-5-methyl-phenol], the IC50 was over 10000 nM in assay [1] and 3 nM on NLRP3 inflammasome.

For orientation: IC50 means the midpoint of a concentration-inhibition curve.
